Results on six compounds are retold here after patent publication US9499570B2, “Boron containing small molecules” (priority 2010, dated 2016).

“Also recorded” adds a separate entry of the source.

Test [1] has as its system Schistosoma mansoni schistosomula. The test can be described thus: Schistosoma mansoni schistosomula phenotype screen in vitro. To be noted: for Schistosomula (juvenile infective form) worm screen phenotype 24 h / Schistosomula (juvenile infective form) worm screen phenotype 2 d / Schistosomula (juvenile infective form) worm screen phenotype 3 d / Schistosomula (juvenile infective form) worm screen phenotype 4 d: Second Set, 5 uM; for Phenotypes caused by positive control compounds: schistosomula. The source says:
(§1) Puerto Rican isolates of S. mansoni using Biomphalaria glabrata snails and golden hamsters as intermediate and definitive hosts, respectively, were maintained and handled in the University of California-San Francisco Sandler Center for Tropical Medicine. Patent B. glabrata snails (6-8 weeks after exposure to 5-10 infectious miracidia) were induced to shed infective larvae (cercariae) under light stimulus into the surrounding water. Cercariae were washed in rounds of ice-cold water and concentrated through and over sieves of varying pore sizes. They were then mechanically sheared (separation of heads from tails) as described in Colley D G, et al. Exp Parasitol 1974, 35:44-51, in ice-cold Incomplete Medium 169 (as described in Basch P F. J Parasitol 1981, 67:179-185, minus FBS and antibiotics) by passing 15 times through a double headed 22-gauge syringe needle connected to two 10 mL syringes. The resulting cercarial heads (schistosomula) were separated from their tails by swirling in a petri dish. Concentrated schistosomula were added to a sterile 1.5 mL centrifuge tube and allowed to settle over ice. Schistosomula were transferred to a sterile environment and washed 4 times in Incomplete Medium 169 prior to plating.
(§2) Two sets of screening were performed. In the first set, compounds were screened against schistosomula and observations were made at 24 hours, 2 days, 3 days, 4 days, and 6 days. In the second set, compounds were screened against schistosomula with observations at 24 hours, 2 days, 3 days, and 4 days and adult worms at 7 hours, 24 hours, 4 days, and 6 days.
Plates contain 200 schistosomula/well in […] complete Basch medium and were maintained at 37° C. in a 5% CO2 atmosphere. All compounds were tested in duplicate with at least two experimental replicates. Compounds and control compounds were added to the plates using the Biomek FXp using 96-well disposable tips. Final concentration of DMSO in each well was 0.5%.
(§3) A semi-quantitative and controlled nomenclature for phenotypes that can arise as a result of compound insult to both schistosomula and adults was utilized (Abdulla M H, et al., PLoS Negl Trop Dis 2009, 3:e478). Phenotypes were recorded by visual inspection and on a flexible time basis but at least at 24 h and 4 day time-points in the case of large scale screening. […] To help eliminate bias, two screen analysts scored phenotypes ‘blind’ both to knowledge of the contents of each screening plate and the phenotypes scored by his/her colleague. Upon completing their individual assessments, each analyst's ‘hit sheet’ was then compared to derive a ‘consensus hit sheet’. Discrepancies in analysts' hit sheets were re-evaluated under the microscope to eventually make a consensus hit call.
(§4) Hyper-coiled and coiled represent a verbal description of the visual phenotype as compared to the DMSO control. The + and ++ and +++ means more of the phenotype which preceded it. The − means less of the phenotype which preceded it. Results

Test [2] has as its system Schistosoma mansoni adult worms. The test can be described thus: Schistosoma mansoni adult worm phenotype screen in vitro. To be noted: for Adult worm screen phenotype 7 h / Adult worm screen phenotype 24 h / Adult worm screen phenotype 4 d / Adult worm screen phenotype 6 d*: Second Set, 5 uM; for Phenotypes caused by positive control compounds: adult worms.
From the text: as §1, §2
Given the delicacy and size (0.5-1.5 cm in length) of this stage all operations were performed manually by the Sandler Center. 24-well plates were set up with compound (final DMSO concentration=0.5%) containing approximately 5 pairs of worms (S. mansoni has separate sexes) in 2 mL complete Basch medium per well. Plates were maintained at 37° C. in a 5% CO2 atmosphere. All compounds were tested in duplicate with at least two experimental replicates.
as §3, §4

For the compound `COc1nc(Oc2cc3c(cc2F)B(O)OC3)ccc1C#N` [6-(6-Fluoro-1-hydroxy-1,3-dihydrobenzo[c][1,2]oxaborol-5-yloxy)-2-methoxynicotinonitrile], in test [1] (First Set, day 6), the “Schistosomula phenotype day 6” value is “R O and some and partial D”. In test [1], the “Schistosomula (juvenile infective form) worm screen phenotype 24 h” value is “R, O++,; also recorded: some deg-m”; the “Schistosomula (juvenile infective form) worm screen phenotype 2 d” value is “O+++, and R−, and some and deg-M”; the “Schistosomula (juvenile infective form) worm screen phenotype 3 d” value was “O+++, and some and deg-M”; the “Schistosomula (juvenile infective form) worm screen phenotype 4 d” value is on record as “O+++, some; also recorded: deg-M”. In test [2], the “Adult worm screen phenotype 7 h” value is on record as “O++”; the “Adult worm screen phenotype 24 h” value was “O++ sex sep”; the “Adult worm screen phenotype 4 d” value is given as “O+, sex sep; also recorded: males dark”; the “Adult worm screen phenotype 6 d*” value was “Dark, Partial D”.

Take `CC(C)OCCOc1nc(Oc2ccc3c(c2)COB3O)ccc1C#N` [D140, 6-(1-Hydroxy-1,3-dihydrobenzo[c][1,2]oxaborol-5-yloxy)-2-(2-isopropoxyethoxy)nicotinonitrile, reference compound]: in test [1], the “Schistosomula (juvenile infective form) worm screen phenotype 24 h” value is listed as “R, O++,; also recorded: some deg-m”; the “Schistosomula (juvenile infective form) worm screen phenotype 2 d” value is “O+++, and R−, and some and deg-M”; the “Schistosomula (juvenile infective form) worm screen phenotype 3 d” value was “O+++, R, and some and deg-M”; the “Schistosomula (juvenile infective form) worm screen phenotype 4 d” value is reported as “O+++, R,; also recorded: some deg-M”. Further, in test [2], the “Adult worm screen phenotype 7 h” value is “O++”; the “Adult worm screen phenotype 24 h” value is “O++ sex sep”; the “Adult worm screen phenotype 4 d” value is on record as “O, sex sep,”.

`CC(=O)CCCOc1nc(Oc2ccc3c(c2)COB3O)ccc1C#N` [D141, 6-(1-hydroxy-1,3-dihydrobenzo[c][1,2]oxaborol-5-yloxy)-2-(4-oxopentyloxy) nicotinonitrile, reference compound]: in test [1], the “Schistosomula (juvenile infective form) worm screen phenotype 24 h” value is reported as “R, O++,; also recorded: some deg-m”; the “Schistosomula (juvenile infective form) worm screen phenotype 2 d” value is “O+++, and R−, and some and deg-M”; the “Schistosomula (juvenile infective form) worm screen phenotype 3 d” value was “O+++, R, and some and deg-M”; the “Schistosomula (juvenile infective form) worm screen phenotype 4 d” value was “O+++, R,; also recorded: some deg-M”. Moreover, in test [2], the “Adult worm screen phenotype 7 h” value is “O++, and Sex sep (Sex sep=worm pairs have separated) and (violent and motion)”; the “Adult worm screen phenotype 24 h” value is “O++, Sex; also recorded: sep (violent; also recorded: motion)”; the “Adult worm screen phenotype 4 d” value is listed as “O++, sex; also recorded: sep on sides,; also recorded: males dark”; the “Adult worm screen phenotype 6 d*” value was “Dark, S,; also recorded: Partial D (Partial D=partial killing of worm population)”.

Consider `O=C(C1CCCCC1)N1CC(=O)N2CCc3ccccc3C2C1` (stereo not drawn) [PZQ, reference compound], for which the “Phenotypes caused by positive control compounds” value (“Phenotypes caused” below) in test [1] is “dose-dependent, rapid and severe phenotypes”; in test [2] it was “dose-dependent, rapid and severe phenotypes”.

Consider `O=C(Nc1ccc([N+](=O)[O-])cc1Cl)c1cc(Cl)ccc1O` [niclosamide, reference compound], for which the “Phenotypes caused” value is “dose-dependent, rapid and severe phenotypes” in test [1]; “dose-dependent, rapid and severe phenotypes” in test [2].

Turning to `O=C(Nc1ccc(Oc2ccc(Cl)cc2)c(Cl)c1)c1cc(I)cc(I)c1O` [rafoxanide, reference compound], the “Phenotypes caused” value is “dose-dependent, rapid and severe phenotypes” in test [1]; “dose-dependent, rapid and severe phenotypes” in test [2].
